#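 All cell lines were grown in 96-well plates and treated with compound for 48 hours. GI50 = concentration required for 50% inhibition of growth.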 Active and inactive are the calls of the source. Cut-off read from the data, not from the text of the source: active = GI50 up to about 1.1 µM and inactive = higher.
# Key:
# Assay in all cases: NCI anticancer screen, dose series, 48 h
# 786-0 = tested on: 786-0
# A549 = tested on: A549
# ACHN = tested on: ACHN
# BT-549 = tested on: BT-549
# CAKI-1 = tested on: CAKI-1
# CCRF-CEM = tested on: CCRF-CEM
# COLO 205 = tested on: COLO 205
# DU-145 = tested on: DU-145
# EKVX = tested on: EKVX
# HCC 2998 = tested on: HCC 2998
# HCT-116 = tested on: HCT-116
# HCT-15 = tested on: HCT-15
# HL-60 = tested on: HL-60
# HOP-62 = tested on: HOP-62
# HOP-92 = tested on: HOP-92
# HT-29 = tested on: HT-29
# Hs-578T = tested on: Hs-578T
# IGROV-1 = tested on: IGROV-1
# K562 = tested on: K562
# KM12 = tested on: KM12
# LOX IMVI = tested on: LOX IMVI
# M14 = tested on: M14
# MCF7 = tested on: MCF7
# MDA-MB-231 = tested on: MDA-MB-231
# MDA-MB-435 = tested on: MDA-MB-435
# MDA-N = tested on: MDA-N
# MOLT-4 = tested on: MOLT-4
# Malme-3M = tested on: Malme-3M
# NCI-H226 = tested on: NCI-H226
# NCI-H23 = tested on: NCI-H23
# NCI-H460 = tested on: NCI-H460
# NCI-H522 = tested on: NCI-H522
# NCI/ADR-RES = tested on: NCI/ADR-RES
# OVCAR-3 = tested on: OVCAR-3
# OVCAR-4 = tested on: OVCAR-4
# OVCAR-5 = tested on: OVCAR-5
# OVCAR-8 = tested on: OVCAR-8
# PC-3 = tested on: PC-3
# RPMI-8226 = tested on: RPMI-8226
# RXF 393 = tested on: RXF 393
# SF-268 = tested on: SF-268
# SF-295 = tested on: SF-295
# SK-MEL-2 = tested on: SK-MEL-2
# SK-MEL-5 = tested on: SK-MEL-5
# SK-OV-3 = tested on: SK-OV-3
# SN12C = tested on: SN12C
# SNB-19 = tested on: SNB-19
# SNB-75 = tested on: SNB-75
# SW-620 = tested on: SW-620
# T47D = tested on: T47D
# TK-10 = tested on: TK-10
# U-251 = tested on: U-251
# UACC-257 = tested on: UACC-257
# UACC-62 = tested on: UACC-62
# UO-31 = tested on: UO-31
# A498 = tested on: A498
# SF-539 = tested on: SF-539
# SK-MEL-28 = tested on: SK-MEL-28
smiles,measurement,setting,value
COC(=O)[C@H](Cc1ccccc1)NC(=O)OCC1OC(n2cc(C)c(=O)[nH]c2=O)CC1N=[N+]=[N-] (some centres not stated),GI50,786-0,> 100 µM (inactive)
same,GI50,A549,> 100 µM (inactive)
same,GI50,ACHN,86.1 µM (inactive)
same,GI50,BT-549,> 100 µM (inactive)
same,GI50,CAKI-1,> 100 µM (inactive)
same,GI50,CCRF-CEM,> 100 µM (inactive)
same,GI50,COLO 205,> 100 µM (inactive)
same,GI50,DU-145,> 100 µM (inactive)
same,GI50,EKVX,> 100 µM (inactive)
same,GI50,HCC 2998,> 100 µM (inactive)
same,GI50,HCT-116,> 100 µM (inactive)
same,GI50,HCT-15,> 100 µM
same,GI50,HL-60,> 100 µM (inactive)
same,GI50,HOP-62,> 100 µM (inactive)
same,GI50,HOP-92,> 100 µM (inactive)
same,GI50,HT-29,> 100 µM (inactive)
same,GI50,Hs-578T,0.0617 µM (active)
same,GI50,IGROV-1,> 100 µM (inactive)
same,GI50,K562,> 100 µM (inactive)
same,GI50,KM12,> 100 µM (inactive)
same,GI50,LOX IMVI,> 100 µM (inactive)
same,GI50,M14,> 100 µM (inactive)
same,GI50,MCF7,> 100 µM (inactive)
same,GI50,MDA-MB-231,> 100 µM (inactive)
same,GI50,MDA-MB-435,> 100 µM (inactive)
same,GI50,MDA-N,> 100 µM (inactive)
same,GI50,MOLT-4,> 100 µM (inactive)
same,GI50,Malme-3M,> 100 µM (inactive)
same,GI50,NCI-H226,> 100 µM (inactive)
same,GI50,NCI-H23,> 100 µM (inactive)
same,GI50,NCI-H460,> 100 µM (inactive)
same,GI50,NCI-H522,> 100 µM (inactive)
same,GI50,NCI/ADR-RES,> 100 µM (inactive)
same,GI50,OVCAR-3,> 100 µM (inactive)
same,GI50,OVCAR-4,> 100 µM (inactive)
same,GI50,OVCAR-5,> 100 µM (inactive)
same,GI50,OVCAR-8,> 100 µM (inactive)
same,GI50,PC-3,> 100 µM (inactive)
same,GI50,RPMI-8226,> 100 µM (inactive)
same,GI50,RXF 393,> 100 µM (inactive)
same,GI50,SF-268,> 100 µM (inactive)
same,GI50,SF-295,> 100 µM (inactive)
same,GI50,SK-MEL-2,> 100 µM (inactive)
same,GI50,SK-MEL-5,4.12 µM (inactive)
same,GI50,SK-OV-3,> 100 µM (inactive)
same,GI50,SN12C,> 100 µM (inactive)
same,GI50,SNB-19,> 100 µM (inactive)
same,GI50,SNB-75,78.3 µM (inactive)
same,GI50,SW-620,> 100 µM (inactive)
same,GI50,T47D,> 100 µM (inactive)
same,GI50,TK-10,> 100 µM (inactive)
same,GI50,U-251,> 100 µM (inactive)
same,GI50,UACC-257,> 100 µM (inactive)
same,GI50,UACC-62,> 100 µM (inactive)
same,GI50,UO-31,> 100 µM (inactive)
NC(=O)Nc1n[nH]c(-c2ccccc2)n1,GI50,786-0,> 100 µM (inactive)
same,GI50,A498,> 100 µM (inactive)
same,GI50,A549,> 100 µM (inactive)
same,GI50,ACHN,> 100 µM (inactive)
same,GI50,BT-549,> 100 µM (inactive)
same,GI50,CAKI-1,> 100 µM (inactive)
same,GI50,CCRF-CEM,> 100 µM (inactive)
same,GI50,COLO 205,> 100 µM (inactive)
same,GI50,DU-145,> 100 µM (inactive)
same,GI50,EKVX,> 100 µM (inactive)
same,GI50,HCC 2998,> 100 µM (inactive)
same,GI50,HCT-116,> 100 µM (inactive)
same,GI50,HCT-15,> 100 µM
same,GI50,HL-60,> 100 µM (inactive)
same,GI50,HOP-62,54.1 µM (inactive)
same,GI50,HT-29,> 100 µM (inactive)
same,GI50,Hs-578T,> 100 µM (inactive)
same,GI50,IGROV-1,> 100 µM (inactive)
same,GI50,K562,> 100 µM (inactive)
same,GI50,KM12,> 100 µM (inactive)
same,GI50,LOX IMVI,> 100 µM (inactive)
same,GI50,M14,> 100 µM (inactive)
same,GI50,MCF7,> 100 µM (inactive)
same,GI50,MDA-MB-231,> 100 µM (inactive)
same,GI50,MDA-MB-435,> 100 µM (inactive)
same,GI50,MDA-N,> 100 µM (inactive)
same,GI50,MOLT-4,> 100 µM (inactive)
same,GI50,Malme-3M,> 100 µM (inactive)
same,GI50,NCI-H226,> 100 µM (inactive)
same,GI50,NCI-H23,> 100 µM (inactive)
same,GI50,NCI-H460,> 100 µM (inactive)
same,GI50,NCI-H522,> 100 µM (inactive)
same,GI50,NCI/ADR-RES,> 100 µM (inactive)
same,GI50,OVCAR-3,> 100 µM (inactive)
same,GI50,OVCAR-4,> 100 µM (inactive)
same,GI50,OVCAR-5,> 100 µM (inactive)
same,GI50,OVCAR-8,> 100 µM (inactive)
same,GI50,PC-3,> 100 µM (inactive)
same,GI50,RPMI-8226,> 100 µM (inactive)
same,GI50,RXF 393,> 100 µM (inactive)
same,GI50,SF-268,> 100 µM (inactive)
same,GI50,SF-295,0.706 µM (active)
same,GI50,SF-539,> 100 µM (inactive)
same,GI50,SK-MEL-28,> 100 µM (inactive)
same,GI50,SK-MEL-2,> 100 µM (inactive)
same,GI50,SK-MEL-5,> 100 µM (inactive)
same,GI50,SK-OV-3,1.79 µM (inactive)
same,GI50,SN12C,> 100 µM (inactive)
same,GI50,SNB-19,> 100 µM (inactive)
same,GI50,SNB-75,> 100 µM (inactive)
same,GI50,SW-620,> 100 µM (inactive)
same,GI50,T47D,> 100 µM (inactive)
same,GI50,TK-10,> 100 µM (inactive)
same,GI50,U-251,> 100 µM (inactive)
same,GI50,UACC-257,> 100 µM (inactive)
same,GI50,UACC-62,> 100 µM (inactive)
same,GI50,UO-31,> 100 µM (inactive)

# — ChEMBL document CHEMBL1201862, “PubChem BioAssay data set” (2004)
